Patent US20210220376A1, “ADDICTION TREATMENT OF AN ALCOHOL-CONSUMING PATIENT POPULATION” (Amygdala Neurosciences, Inc., priority 2018, published 2021)

What was measured:
[1] = Phase 1 study of compound (2) with ethanol: pharmacokinetics of compound (1) and breath alcohol; conditions: after repeated EtOH administration
From the text: Plasma concentrations of compound (1) and BrAC were summarized and listed by treatment, subject and timepoint. Pharmacokinetic parameters derived for compound (1) were also summarized and listed by treatment and subject. Pharmacokinetic parameters were estimated using a non-compartmental approach with a log-linear terminal phase assumption. The trapezoidal rule was used to estimate the area under the curve (linear trapezoidal linear interpolation) and the terminal phase will be estimated by maximizing the coefficient of determination estimated from the log-linear regression model. However, AUC0-∞, AUClast/∞, λz and t1/2 parameters were to be estimated for individual concentration-time profiles only when the terminal log-linear phase could be reliably characterized.
Proportionality analysis was done using a power model. The power model was defined as: […]
A linear model with ln-transformed dose as a continuous effect was fitted. A point estimate and a 90% CI was derived for the slope (β). The parameter could be considered to be dose proportional if the 90% confidence interval of the slope β was within [1+ln(0.8)/ln(r), 1+ln(1.25)/ln(r)], where r=the highest dose studied/the lowest dose (Smith et al., “Confidence interval criteria for assessment of dose proportionality.” Pharm Res. 17 (10):1278-83 (2000)).

human ALDH-2 enzyme = target: T1, human ALDH-2 enzyme (Homo sapiens, UniProt P05091); conditions: read-out: IC50 ALDH-2; cited from earlier work
T1 sequence (P05091 18-517): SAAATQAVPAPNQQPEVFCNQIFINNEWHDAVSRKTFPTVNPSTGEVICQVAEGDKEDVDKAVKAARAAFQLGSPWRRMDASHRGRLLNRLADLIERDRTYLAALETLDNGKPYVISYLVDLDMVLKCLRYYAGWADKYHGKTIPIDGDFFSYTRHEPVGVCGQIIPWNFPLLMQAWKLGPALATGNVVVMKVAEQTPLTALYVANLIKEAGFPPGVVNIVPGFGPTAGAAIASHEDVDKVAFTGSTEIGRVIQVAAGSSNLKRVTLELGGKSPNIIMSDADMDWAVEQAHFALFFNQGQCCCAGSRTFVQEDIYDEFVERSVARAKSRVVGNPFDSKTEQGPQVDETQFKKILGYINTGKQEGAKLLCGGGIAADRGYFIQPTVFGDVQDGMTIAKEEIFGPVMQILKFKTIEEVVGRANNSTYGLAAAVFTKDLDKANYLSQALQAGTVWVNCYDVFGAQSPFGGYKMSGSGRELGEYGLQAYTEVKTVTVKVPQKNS

For `O=C(NCc1ccc(-c2ccn(COP(=O)(O)O)c(=O)c2)cc1)c1c(Cl)cccc1Cl` [Compound (2), phosphoric acid mono-(4-{4-[(2,6-dichloro-benzoylamino)-methyl]-phenyl}-2-oxo-2H-pyridin-1-ylmethyl) ester], which “peak breath alcohol concentrations compared with placebo” value [1] is on record?
Its value is “slightly higher”.

What about the IC50 (human ALDH-2 enzyme) of the same compound?
The IC50 was greater than 10 µM.
